Data: PMC12647645, “Structural interactions of BWC0977 with Klebsiella pneumoniae topoisomerase IV and biochemical basis of its broad-spectrum activity” (Communications Biology, 2025)
Values after ≈ are worked out from the molar mass of the structure shown. Values joined by “and” are separate entries in the source; they are usually repeats but may differ in a detail not shown here. Equal entries are not always repeated. Where two headings read alike, the source gives them in different places.

Columns and labels:
K. pneumoniae BAA 2784 = test: microbe, parasite or virus in culture; assay type: cell-based; details: Klebsiella pneumoniae, BAA2784
A. baumannii BAA 2885 = test: microbe, parasite or virus in culture; assay type: cell-based; details: Acinetobacter baumannii, BAA2885
E. coli BAA 2469 = test: microbe, parasite or virus in culture; assay type: cell-based; details: Escherichia coli, BAA2469
P. aeruginosa ATCC 27853 [1] = details: 4× MIC
Description: Spontaneous resistance frequencies to BWC0977 were evaluated in E. coli ATCC 25922, P. aeruginosa ATCC 27853, and A. baumannii ATCC 19606. Mid-logarithmic phase cultures (~10^9 CFU/mL) were plated onto Luria-Bertani agar containing BWC0977 at 4×, 8×, and 16× the respective MICs. Plates were incubated at 37 °C for 24–36 h, and resistance frequencies were estimated by counting colony-forming units (CFUs) on the drug-containing plates. MICs of the isolated colonies were determined, and the gyrA, gyrB, parC, and parE genes were sequenced to assess for target-site mutations.

E. coli gyrase [2] = target: T1, E. coli gyrase (Escherichia coli, UniProt P0AES4+P0AES6); assay type: biochemical; details: gyrase cleavage-complex assay
T1 construct: purchased Inspiralis
Description: (§1) Reactions were stopped by adding 3.8 μL of a stop solution containing 0.8 μL Proteinase K (20 mg/mL) and 3 μL SDS (2%), followed by incubation at 37 °C for 60 min. Afterward, 4 μL of STEB loading buffer was added, and samples were run on pre-stained 0.8% agarose gels containing 0.4 μg/mL ethidium bromide. […] The % nicked and linear DNA formed with varying compound concentrations was plotted for comparison.

[3] = target: E. coli GyrA D82N mutant gyrase (Escherichia coli, UniProt P0AES4+P0AES6, D82N); test: biochemical; assay type: biochemical; details: for Gyrase supercoiling inhibition response: GyrA D82N gyrase
[4] = target: E. coli GyrA S83L mutant gyrase (Escherichia coli, UniProt P0AES4+P0AES6, S83L); test: biochemical; assay type: biochemical; details: for Gyrase supercoiling inhibition response: GyrA S83L gyrase
E. coli ATCC 25922 [5] = test: MIC broth microdilution; assay type: cell-based; details: Escherichia coli, ATCC25922
E. coli topoisomerase IV = target: T2, E. coli topoisomerase IV (Escherichia coli, UniProt P0AFI2+P20083); test: Topoisomerase IV cleavage-complex assay; assay type: biochemical
T2 construct: purchased Inspiralis
Description: as §1

[6] = test system: A. baumannii ATCC 19606 resistant mutant colonies (mutant 1-5); test: microbe, parasite or virus in culture; assay type: cell-based; details: Acinetobacter baumannii
E. coli ATCC 25922 [7] = details: >4× MIC; cited from earlier work
E. faecium = test system: E. faecium; design: method as in ref 6 (Hameed P et al., 2024); details: ref 6 (Hameed P et al., 2024); cited from earlier work
P. aeruginosa ATCC 27853 [8] = test: MIC broth microdilution; assay type: cell-based; details: Pseudomonas aeruginosa, ATCC27853
E. faecalis ATCC 29212 = test: MIC broth microdilution; assay type: cell-based; details: Enterococcus faecalis, ATCC29212
[9] = test system: E. coli MG1655 GyrA M120A, ParC M118A; test: microbe, parasite or virus in culture; assay type: cell-based; details: Escherichia coli
[10] = test system: E. coli MG1655 GyrA WT, ParC D79N; test: microbe, parasite or virus in culture; assay type: cell-based; details: Escherichia coli
P. aeruginosa BAA 2797 = test: microbe, parasite or virus in culture; assay type: cell-based; details: Pseudomonas aeruginosa, BAA2797
K. pneumoniae = details: ref 6 (Hameed P et al., 2024); cited from earlier work
[11] = test system: E. coli MG1655 GyrA D82N, ParC WT; test: microbe, parasite or virus in culture; assay type: cell-based; details: Escherichia coli
E. coli gyrase [12] = target: T1, E. coli gyrase; test: biochemical; assay type: biochemical; details: for Gyrase supercoiling inhibition response: E. coli WT gyrase
P. aeruginosa BAA 2794 = test: microbe, parasite or virus in culture; assay type: cell-based; details: Pseudomonas aeruginosa, BAA2794
A. baumannii = test system: A. baumannii; design: method as in ref 6 (Hameed P et al., 2024); details: ref 6 (Hameed P et al., 2024); cited from earlier work

Cn1c(=O)ccc2ccc(F)c(CCNC[C@H]3CN(c4cnc5c(n4)NC(=O)CO5)C(=O)O3)c21 [BWC0977]
MIC (K. pneumoniae BAA 2784): 0.125 µg/mL (≈ 0.267 µM) | MIC (A. baumannii BAA 2885): 0.5 µg/mL (≈ 1.07 µM) | MIC (E. coli BAA 2469): 0.01 µg/mL (≈ 0.0213 µM) | resistance frequency (P. aeruginosa ATCC 27853 [1]): less than 1 × 10^−9 | type of DNA breaks induced (E. coli gyrase [2]): single-strand DNA breaks | IC50 ([3]; Fig. 6, read-out: IC50 D82N gyrase supercoiling): 8070 nM | Gyrase supercoiling inhibition response ([3]; compound 4.444 µM, source data Fig 6A/6B, 4.444 µM): 46.06 and 47.14 | Gyrase supercoiling inhibition response ([3]; compound 13.333 µM, source data Fig 6A/6B, 13.333 µM): 41.37 and 59.15 and 62.03 | Gyrase supercoiling inhibition response ([3]; compound 40 µM, source data Fig 6A/6B, 40 µM): 73.59 and 74.94 | Gyrase supercoiling inhibition response ([3]; compound 120 µM, source data Fig 6A/6B, 120 µM): 87.19 and 87.16 | reduction in inhibition potency compared to wildtype gyrase ([3]; GyrA D82N vs WT): > 500 fold | inhibition at 4.444 µM ([3]; read-out: Gyrase supercoiling inhibition response, GyrA D82N gyrase, compound 4.444 µM, source data Fig 6A/6B): 30.7% | inhibition at 40 µM ([3]; read-out: Gyrase supercoiling inhibition response, GyrA D82N gyrase, compound 40 µM, source data Fig 6A/6B): 55.7% | inhibition at 120 µM ([3]; read-out: Gyrase supercoiling inhibition response, GyrA D82N gyrase, compound 120 µM, source data Fig 6A/6B): 78.8% | IC50 ([4]; Fig. 6, read-out: IC50 S83L gyrase supercoiling): 3 nM | Gyrase supercoiling inhibition response ([4]; compound 0.0005 µM, source data Fig 6A, 0.0005 µM): 7.40 | Gyrase supercoiling inhibition response ([4]; compound 0.0014 µM, source data Fig 6A, 0.0014 µM): 20.69 | Gyrase supercoiling inhibition response ([4]; compound 0.0041 µM, source data Fig 6A, 0.0041 µM): 57.16 | Gyrase supercoiling inhibition response ([4]; compound 0.012 µM, source data Fig 6A, 0.012 µM): 82.23 | Gyrase supercoiling inhibition response ([4]; compound 0.037 µM, source data Fig 6A, 0.037 µM): 88.47 | Gyrase supercoiling inhibition response ([4]; compound 0.111 µM, source data Fig 6A, 0.111 µM): 97.88 | Gyrase supercoiling inhibition response ([4]; compound 0.333 µM, source data Fig 6A, 0.333 µM): 98.84 | Gyrase supercoiling inhibition response ([4]; compound 1 µM, source data Fig 6A, 1 µM): 98.71 | Gyrase supercoiling inhibition response ([4]; compound 3 µM, source data Fig 6A, 3 µM): 96.44 | potency shift relative to WT ([4]; quinolone-resistant S83L vs WT): < 3 fold | inhibition at 0.0014 µM ([4]; read-out: Gyrase supercoiling inhibition response, GyrA S83L gyrase, compound 0.0014 µM, source data Fig 6A): 35% | inhibition at 0.0041 µM ([4]; read-out: Gyrase supercoiling inhibition response, GyrA S83L gyrase, compound 0.0041 µM, source data Fig 6A): 60.7% | inhibition at 0.012 µM ([4]; read-out: Gyrase supercoiling inhibition response, GyrA S83L gyrase, compound 0.012 µM, source data Fig 6A): 74.3% | inhibition at 0.037 µM ([4]; read-out: Gyrase supercoiling inhibition response, GyrA S83L gyrase, compound 0.037 µM, source data Fig 6A): 90.2% | inhibition at 0.111 µM ([4]; read-out: Gyrase supercoiling inhibition response, GyrA S83L gyrase, compound 0.111 µM, source data Fig 6A): 91% | inhibition at 0.333 µM ([4]; read-out: Gyrase supercoiling inhibition response, GyrA S83L gyrase, compound 0.333 µM, source data Fig 6A): 97.8% | inhibition at 1 µM ([4]; read-out: Gyrase supercoiling inhibition response, GyrA S83L gyrase, compound 1 µM, source data Fig 6A): 99.5% | inhibition at 3 µM ([4]; read-out: Gyrase supercoiling inhibition response, GyrA S83L gyrase, compound 3 µM, source data Fig 6A): 97.9% | MIC (E. coli ATCC 25922 [5]): 0.06 µg/mL (≈ 0.128 µM) | type of DNA breaks induced (E. coli topoisomerase IV): single-strand DNA breaks | MIC90 ([6]; ATCC19606, read-out: MIC 90 in (μg/mL), resistant mutant colony 1): 0.6 µg/mL (≈ 1.28 µM) | MIC90 ([6]; ATCC19606, read-out: MIC 90 in (μg/mL), resistant mutant colony 2): 0.07 µg/mL (≈ 0.149 µM) | MIC90 ([6]; ATCC19606, read-out: MIC 90 in (μg/mL), resistant mutant colony 3): 0.07 µg/mL (≈ 0.149 µM) | MIC90 ([6]; ATCC19606, read-out: MIC 90 in (μg/mL), resistant mutant colony 4): 0.07 µg/mL (≈ 0.149 µM) | MIC90 ([6]; ATCC19606, read-out: MIC 90 in (μg/mL), resistant mutant colony 5): 0.3 µg/mL (≈ 0.64 µM) | resistant colonies on exposure (E. coli ATCC 25922 [7]): no resistant colonies | MIC90 against diverse global isolates (E. faecium): 0.12 µg/mL (≈ 0.256 µM) | MIC (P. aeruginosa ATCC 27853 [8]): 0.125 µg/mL (≈ 0.267 µM) | MIC (E. faecalis ATCC 29212): 0.03 µg/mL (≈ 0.064 µM) | MIC [9]: 0.0625 µg/mL (≈ 0.133 µM) | MIC [10]: 0.03 µg/mL (≈ 0.064 µM) | MIC (P. aeruginosa BAA 2797): 0.25 µg/mL (≈ 0.534 µM) | MIC90 against diverse global isolates (K. pneumoniae): 2 µg/mL (≈ 4.27 µM) | MIC [11]: 0.08 µg/mL (≈ 0.171 µM) | IC50 (E. coli gyrase [12]): 4 ± 1 nM | Gyrase supercoiling inhibition response (E. coli gyrase [12]; compound 0.0003 μM, source data Fig 2A/6A, 0.0003 µM): 7.2 and 10.3 and 5.8 | Gyrase supercoiling inhibition response (E. coli gyrase [12]; compound 0.0003 μM, source data Fig 2A/6A, listed as 977, 0.0003 µM): 10.30 and 5.78 | Gyrase supercoiling inhibition response (E. coli gyrase [12]; compound 0.008 μM, source data Fig 2A/6A, 0.008 µM): 69.7 and 73.4 | Gyrase supercoiling inhibition response (E. coli gyrase [12]; compound 0.008 μM, source data Fig 2A/6A, listed as 977, 0.008 µM): 73.65 and 69.70 and 73.41 | Gyrase supercoiling inhibition response (E. coli gyrase [12]; compound 0.074 μM, source data Fig 2A/6A, 0.074 µM): 93.3 and 92.7 | Gyrase supercoiling inhibition response (E. coli gyrase [12]; compound 0.074 μM, source data Fig 2A/6A, listed as 977, 0.074 µM): 89.29 and 93.34 and 92.67 | Gyrase supercoiling inhibition response (E. coli gyrase [12]; compound 0.222 μM, source data Fig 2A/6A, 0.222 µM): 96.5 and 97.7 and 91.5 | Gyrase supercoiling inhibition response (E. coli gyrase [12]; compound 0.222 μM, source data Fig 2A/6A, listed as 977, 0.222 µM): 97.67 and 91.52 | Gyrase supercoiling inhibition response (E. coli gyrase [12]; compound 2 μM, source data Fig 2A/6A, 2 µM): 100.2 and 100.3 and 98.6 | Gyrase supercoiling inhibition response (E. coli gyrase [12]; compound 2 μM, source data Fig 2A/6A, listed as 977, 2 µM): 100.30 and 98.60 | higher inhibition potency compared to compound 17a (E. coli gyrase [12]; E. coli gyrase): ~ 20 fold | inhibition at 0.0003 µM (E. coli gyrase [12]; read-out: Gyrase supercoiling inhibition response, E. coli WT gyrase, compound 0.0003 μM, source data Fig 2A/6A): 7.23% | inhibition at 0.008 µM (E. coli gyrase [12]; read-out: Gyrase supercoiling inhibition response, E. coli WT gyrase, compound 0.008 μM, source data Fig 2A/6A): 73.7% | inhibition at 0.074 µM (E. coli gyrase [12]; read-out: Gyrase supercoiling inhibition response, E. coli WT gyrase, compound 0.074 μM, source data Fig 2A/6A): 89.3% | inhibition at 0.222 µM (E. coli gyrase [12]; read-out: Gyrase supercoiling inhibition response, E. coli WT gyrase, compound 0.222 μM, source data Fig 2A/6A): 96.5% | inhibition at 2 µM (E. coli gyrase [12]; read-out: Gyrase supercoiling inhibition response, E. coli WT gyrase, compound 2 μM, source data Fig 2A/6A): 100% | MIC (P. aeruginosa BAA 2794): 0.125 µg/mL (≈ 0.267 µM) | MIC90 against diverse global isolates (A. baumannii): 1 µg/mL (≈ 2.13 µM)
